Converted amounts (≈) assume the structure as drawn.
Assays:
[1] = Solubility in various solvents
[2] = system: Pasteurella piscicida DM-85 strain; parameters: species or system yellowtail; conditions: in vivo
[3] = system: Pseudomonas solanacearum NIAES 1418; format: cell-based; conditions: Pseudomonas solanacearum NIAES 1418 (wilt of solanum)
[4] = system: Pseudomonas syringae PV Mori NIAES 1020; format: cell-based; conditions: Pseudomonas syringae PV Mori NIAES 1020 (bacterial rugose)
Protocol: (§1) The minimum growth inhibitory concentration (MIC) values of bacterial substance UFC-N11 to various kinds of bacteria determined according to the conventional method were measured in the conventional manner.

[5] = system: Escherichia coli NIHJ JC-2; format: cell-based
Protocol: as §1

Salmonella typhimurium = format: cell-based
Protocol: as §1

[6] = system: Salmonella enteritidis 1891; format: cell-based
Protocol: as §1

[7] = system: Xandomonas campestris FV Pruni 7855SMR; format: cell-based; conditions: Xandomonas campestris FV Pruni 7855SMR (bacterial spot of peach)
Protocol: as §1

Proteus vulgaris OX-19 = format: cell-based
Protocol: as §1

Campylobacter fetus = format: cell-based
Protocol: as §1

Klebsiella pneumoniae = format: cell-based
Protocol: as §1

[8] = system: Corynebacterium michiganence PV michiganene NIAES 1044; format: cell-based; conditions: Corynebacterium michiganence NIAES 1044 (bacterial canker of tomatoes)
Protocol: as §1

[9] = system: Pseudomonas syringae PV tabaci NIAES 1075; format: cell-based
Protocol: as §1

Campylobacter jejuni = format: cell-based
Protocol: as §1

[10] = system: Xandomonas campestris PV campestris NIAES 1152; format: cell-based; conditions: Xandomonas campestris PV campestris NIAES 1152 (black rot)
Protocol: as §1

[11] = system: Staphylococcus aureus 209-P; format: cell-based
Protocol: as §1

[12] = system: Pseudomonas syringae PV lachrymans NIAES 1316; format: cell-based; conditions: Pseudomonas syringae PV lachrymans NIAES 1316 (angular leaf spot of cucumber)
Protocol: as §1

Structure (SMILES): CC=CC=CC=CC(=O)NC(CC(=O)NC(C(=O)C1C(=O)NC(=O)C1C)C(C)C)c1ccccc1 (stereo not drawn) [UFC-N11]
- Solubility in various solvents ([1]; n-hexane, chloroform, benzene and water): slightly soluble or insolbule
- Solubility in various solvents ([1]; pyridine, acetic acid, dimethyl sulfoxide, methanol, ethanol, acetone, ethyl acetate and dimethyl ether): soluble
- therapeutic effect [2]: excellent therapeutic effect
- MIC [3]: 1.56 µg/mL (≈ 3.25 µM)
- MIC [4]: 25 µg/mL (≈ 52.1 µM)
- MIC [5]: 1.56 µg/mL (≈ 3.25 µM)
- MIC (Salmonella typhimurium): 6.25 µg/mL (≈ 13 µM)
- MIC [6]: 0.78 µg/mL (≈ 1.63 µM)
- MIC [7]: 0.1 µg/mL (≈ 0.209 µM)
- MIC (Proteus vulgaris OX-19): 0.195 µg/mL (≈ 0.407 µM)
- MIC (Campylobacter fetus): 1.56 µg/mL (≈ 3.25 µM)
- MIC (Klebsiella pneumoniae): 12.5 µg/mL (≈ 26.1 µM)
- MIC [8]: 6.25 µg/mL (≈ 13 µM)
- MIC [9]: 12.5 µg/mL (≈ 26.1 µM)
- MIC (Campylobacter jejuni): 0.78 µg/mL (≈ 1.63 µM)
- MIC [10]: 0.1 µg/mL (≈ 0.209 µM)
- MIC [11]: 1.56 µg/mL (≈ 3.25 µM)
- MIC [12]: 6.25 µg/mL (≈ 13 µM)
